Source: ChEMBL document CHEMBL3885861, “Open TG-GATES”

Species on record: Rattus norvegicus
Experiment: Open TG-GATES - Regimen: Daily Repeat
Format: toxicity, organism-based, Sprague-Dawley
Parameters: regimen Daily Repeat, gender Male, age 6 weeks
Conditions: in vivo, po, 1 mg/kg, […], route gavage, dose level Middle; for APTT / Bas / Eos / Fbg / Hb / Ht / Lym / MCH / MCHC / MCV / Mono / Neu / PT / Plat / RBC / Ret / WBC: tissue Blood; for KIDNEY_L / KIDNEY_R / KIDNEY_TOTAL: tissue Kidney; for LIVER: tissue Liver; for A/G / ALP / ALT / AST / BUN / CRE / Ca / Cl / DBIL / GLC / IP / K / LDH / Na / PL / RALB / TBIL / TC / TG / TP / gamma-GTP: tissue Plasma

SMILES: CN1C(C(=O)Nc2ccccn2)=C(O)c2sc(Cl)cc2S1(=O)=O [LORNOXICAM]
- TERMINAL_BW (time 14 day): 307.1 g
- TERMINAL_BW (time 28 day): 392.3 g
- APTT (time 7 day): 18.4 s
- Bas (time 7 day): 0.8%
- Eos (time 7 day): 1%
- Fbg (time 7 day): 239.8 mg/dL
- Hb (time 7 day): 12.9 g/dL
- Ht (time 7 day): 38.3%
- Lym (time 7 day): 71.6%
- MCH (time 7 day): 20.9 pg
- MCHC (time 7 day): 33.6%
- MCV (time 7 day): 62.1 fL
- Mono (time 7 day): 2.8%
- Neu (time 7 day): 23.6%
- PT (time 7 day): 11.5 s
- Plat (time 7 day): 139.1 x10_4/uL
- RBC (time 7 day): 617 x10_4/ul
- Ret (time 7 day): 5.7%
- WBC (time 7 day): 135.6 x10_2/uL
- APTT (time 14 day): 20.3 s
- Bas (time 14 day): 0.8%
- Eos (time 14 day): 0.8%
- Fbg (time 14 day): 291.6 mg/dL
- Hb (time 14 day): 12.9 g/dL
- Ht (time 14 day): 38.8%
- Lym (time 14 day): 62.2%
- MCH (time 14 day): 19.8 pg
- MCHC (time 14 day): 33%
- MCV (time 14 day): 59.9 fL
- Mono (time 14 day): 3.8%
- Neu (time 14 day): 31.8%
- PT (time 14 day): 11.4 s
- Plat (time 14 day): 151.7 x10_4/uL
- RBC (time 14 day): 648 x10_4/ul
- Ret (time 14 day): 5.7%
- WBC (time 14 day): 137.4 x10_2/uL
- APTT (time 28 day): 18.9 s
- Bas (time 28 day): 0.8%
- Eos (time 28 day): 1%
- Fbg (time 28 day): 247.2 mg/dL
- Hb (time 28 day): 15.2 g/dL
- Ht (time 28 day): 44.2%
- Lym (time 28 day): 71%
- MCH (time 28 day): 19.6 pg
- MCHC (time 28 day): 34.2%
- MCV (time 28 day): 57.1 fL
- Mono (time 28 day): 2.5%
- Neu (time 28 day): 24%
- PT (time 28 day): 11.7 s
- Plat (time 28 day): 115.1 x10_4/uL
- RBC (time 28 day): 775.8 x10_4/ul
- Ret (time 28 day): 2.8%
- WBC (time 28 day): 161.4 x10_2/uL
- KIDNEY_L (time 7 day): 1.3 g
- KIDNEY_R (time 7 day): 1.3 g
- KIDNEY_TOTAL (time 7 day): 2.6 g
- KIDNEY_L (time 14 day): 1.5 g
- KIDNEY_R (time 14 day): 1.4 g
- KIDNEY_TOTAL (time 14 day): 2.9 g
- KIDNEY_L (time 28 day): 1.5 g
- KIDNEY_R (time 28 day): 1.5 g
- KIDNEY_TOTAL (time 28 day): 3.1 g
- LIVER (time 7 day): 12.7 g
- LIVER (time 14 day): 12.3 g
- LIVER (time 28 day): 15.1 g
- A/G (time 7 day): 1.4
- ALP (time 7 day): 831.8 IU/L
- ALT (time 7 day): 41.6 IU/L
- AST (time 7 day): 75.6 IU/L
- BUN (time 7 day): 13.4 mg/dL
- CRE (time 7 day): 0.4 mg/dL
- Ca (time 7 day): 10.6 mg/dL
- Cl (time 7 day): 104 meq/L
- DBIL (time 7 day): 0.086 mg/dL
- GLC (time 7 day): 194 mg/dL
- IP (time 7 day): 7.4 mg/dL
- K (time 7 day): 4.1 meq/L
- LDH (time 7 day): 210.2 IU/L
- Na (time 7 day): 141.2 meq/L
- PL (time 7 day): 136 mg/dL
- RALB (time 7 day): 3.2 g/dL
- TBIL (time 7 day): 0.1 mg/dL
- TC (time 7 day): 70.6 mg/dL
- TG (time 7 day): 93 mg/dL
- TP (time 7 day): 5.5 g/dL
- gamma-GTP (time 7 day): 1.2 IU/L
- A/G (time 14 day): 1.2
- ALP (time 14 day): 815.8 IU/L
- ALT (time 14 day): 31.6 IU/L
- AST (time 14 day): 79 IU/L
- BUN (time 14 day): 21.8 mg/dL
- CRE (time 14 day): 0.5 mg/dL
- Ca (time 14 day): 10.3 mg/dL
- Cl (time 14 day): 104.6 meq/L
- DBIL (time 14 day): 0.086 mg/dL
- GLC (time 14 day): 189.6 mg/dL
- IP (time 14 day): 7.1 mg/dL
- K (time 14 day): 4 meq/L
- LDH (time 14 day): 225 IU/L
- Na (time 14 day): 141.8 meq/L
- PL (time 14 day): 131.2 mg/dL
- RALB (time 14 day): 2.9 g/dL
- TBIL (time 14 day): 0.1 mg/dL
- TC (time 14 day): 65.6 mg/dL
- TG (time 14 day): 106.2 mg/dL
- TP (time 14 day): 5.3 g/dL
- gamma-GTP (time 14 day): 2 IU/L
- A/G (time 28 day): 1.3
